Assay results: the NIST ThermoML archive (doi:10.1007/s10765-007-0223-x)

Test: xn = mol fraction of the nth substance listed
Conditions: 101 kPa, Liquid; for speed of sound: Single path-length method

COC(C)(C)C [2-methoxy-2-methylpropane] + Cc1ccccc1
Conditions	mass density [kg/m3]	speed of sound [m/s]
305.65 K, x1 = 0.053	848.195	–
305.65 K, x1 = 0.116	840.022	–
305.65 K, x1 = 0.199	829.282	–
305.65 K, x1 = 0.301	816.062	–
305.65 K, x1 = 0.371	807.159	–
305.65 K, x1 = 0.463	795.249	–
305.65 K, x1 = 0.61	776.592	–
305.65 K, x1 = 0.688	766.747	–
305.65 K, x1 = 0.797	752.961	–
305.65 K, x1 = 0.902	739.7	–
305.65 K, x1 = 0.943	734.343	–
305.65 K, x1 = 1	726.444	–
308.15 K, x1 = 0.053	845.842	1245.8
308.15 K, x1 = 0.116	837.654	1228.3
308.15 K, x1 = 0.199	826.891	1207.5
308.15 K, x1 = 0.301	813.64	1180.9
308.15 K, x1 = 0.371	804.72	1161.8
308.15 K, x1 = 0.463	792.78	1137.8
308.15 K, x1 = 0.61	774.07	1098.8
308.15 K, x1 = 0.688	764.201	1077.9
308.15 K, x1 = 0.797	750.369	1049
308.15 K, x1 = 0.902	737.069	1020.4
308.15 K, x1 = 0.943	731.692	1008
308.15 K, x1 = 1	723.763	990.99
310.65 K, x1 = 0.053	843.486	1235.2
310.65 K, x1 = 0.116	835.279	1217.6
310.65 K, x1 = 0.199	824.494	1196.7
310.65 K, x1 = 0.301	811.214	1170.1
310.65 K, x1 = 0.371	802.273	1150.9
310.65 K, x1 = 0.463	790.303	1126.8
310.65 K, x1 = 0.61	771.541	1087.7
310.65 K, x1 = 0.688	761.642	1066.9
310.65 K, x1 = 0.797	747.769	1037.9
310.65 K, x1 = 0.902	734.423	1009.1
310.65 K, x1 = 0.943	729.029	996.73
310.65 K, x1 = 1	721.069	979.62
313.15 K, x1 = 0.053	841.124	1224.5
313.15 K, x1 = 0.116	832.902	1207
313.15 K, x1 = 0.199	822.092	1186
313.15 K, x1 = 0.301	808.78	1159.3
313.15 K, x1 = 0.371	799.819	1140.1
313.15 K, x1 = 0.463	787.815	1115.9
313.15 K, x1 = 0.61	769.004	1076.7
313.15 K, x1 = 0.688	759.075	1055.9
313.15 K, x1 = 0.797	745.157	1026.8
313.15 K, x1 = 0.902	731.765	997.95
313.15 K, x1 = 0.943	726.353	985.49
313.15 K, x1 = 1	718.357	968.16
315.65 K, x1 = 0.053	838.757	1214
315.65 K, x1 = 0.116	830.517	1196.4
315.65 K, x1 = 0.199	819.682	1175.3
315.65 K, x1 = 0.301	806.341	1148.5
315.65 K, x1 = 0.371	797.359	1129.3
315.65 K, x1 = 0.463	785.32	1105
315.65 K, x1 = 0.61	766.457	1065.8
315.65 K, x1 = 0.688	756.499	1044.9
315.65 K, x1 = 0.797	742.532	1015.6
315.65 K, x1 = 0.902	729.096	986.8
315.65 K, x1 = 0.943	723.661	974.25
315.65 K, x1 = 1	715.636	956.8
318.15 K, x1 = 0.053	836.384	1203.4
318.15 K, x1 = 0.116	828.127	1185.8
318.15 K, x1 = 0.199	817.267	1164.7
318.15 K, x1 = 0.301	803.893	1137.8
318.15 K, x1 = 0.371	794.887	1118.5
318.15 K, x1 = 0.463	782.821	1094.2
318.15 K, x1 = 0.61	763.899	1054.8
318.15 K, x1 = 0.688	753.908	1033.8
318.15 K, x1 = 0.797	739.897	1004.6
318.15 K, x1 = 0.902	726.409	975.59
318.15 K, x1 = 0.943	720.958	963
318.15 K, x1 = 1	712.897	945.54
320.65 K, x1 = 0.053	834.008	1192.9
320.65 K, x1 = 0.116	825.73	1175.2
320.65 K, x1 = 0.199	814.847	1154.1
320.65 K, x1 = 0.301	801.438	1127
320.65 K, x1 = 0.371	792.407	1107.7
320.65 K, x1 = 0.463	780.31	1083.4
320.65 K, x1 = 0.61	761.327	1043.8
320.65 K, x1 = 0.688	751.303	1022.8
320.65 K, x1 = 0.797	737.246	993.5
320.65 K, x1 = 0.902	723.713	964.4
320.65 K, x1 = 0.943	718.237	951.77
320.65 K, x1 = 1	710.141	934.24
323.15 K, x1 = 0.053	831.624	1182.4
323.15 K, x1 = 0.116	823.329	1164.6
323.15 K, x1 = 0.199	812.42	1143.5
323.15 K, x1 = 0.301	798.979	1116.4
323.15 K, x1 = 0.371	789.92	1097
323.15 K, x1 = 0.463	777.787	1072.5
323.15 K, x1 = 0.61	758.745	1032.9
323.15 K, x1 = 0.688	748.686	1011.9
323.15 K, x1 = 0.797	734.592	982.48
323.15 K, x1 = 0.902	721	953.28
323.15 K, x1 = 0.943	715.503	940.59
323.15 K, x1 = 1	707.381	922.97
